Patent publication US20090306053A1, “Highly selective rho-kinase inhibitor” (priority 2005, published 2009)
Counter-ions that a name gives are not always drawn.

Columns and labels:
Type in all cases: biochemical
Purified rat CaMKII = assay: CaMKII kinase assay (Kinase-Glo ATP consumption); conditions: relative ratio to ROCKII (=1.0), based on IC50 values
Method: Purified rat CaMKII (containing CaMKIIα and small amounts of β, γ, and δ isoforms, Upstate) was used to evaluate its activity to phosphorylate a substrate peptide (KKALRRQETVDAL, Upstate).
In a system of the total volume of 50 μL, the reaction of the above-mentioned enzyme (33 ng) was carried out at room temperature for 60 minutes in the presence of 50 mM of Tris-HCl (pH7.5), 10 mM of magnesium chloride, 2 mM of calcium chloride, 0.04 mg/mL of BSA, 16 μg/mL of purified bovine brain calmodulin (Sigma), 0.5 mM of DTT, 50 µM of the above peptide, and 1 μM of ATP. After the kinase reaction, the luminescence intensity corresponding to the amount of ATP in the reaction system was measured using a luciferase reagent (Kinase-Glo Luminescent Kinase Assay kit, Promega) with a chemiluminescence measurement apparatus (MicroLumat, Berthold Technologies). The amount of ATP consumed by the phosphorylation reaction was calculated by comparison with the luminescence intensity in the system when the kinase reaction was not carried out.
(§1) With this system, the kinase reaction was carried out in the presence of a compound at various concentrations, and the IC50 value of the compound was determined based on the resulting compound concentration-response curve for ATP consumption.
(§2) The ROCKII-inhibiting activity of a compound to be tested was defined as 1.0, and the inhibitory activities of the compound against kinases (PKA, PKG, CaMKII, and AuroraA) other than ROCKII were calculated as relative ratios to the ROCKII-inhibiting activity, based on the IC50 values calculated using the above-described evaluation system.

[1] = molecular target: T1, Recombinant human AuroraA (Homo sapiens, UniProt O14965); assay: AuroraA kinase assay (Kinase-Glo ATP consumption); set-up: key to Realative Inhibitory Activity AuroraA: ratio relative to ROCKII-inhibiting activity defined as 1.0 (from IC50s); conditions: relative ratio to ROCKII (=1.0), based on IC50 values
T1 construct: purchased Upstate
T1 sequence (O14965 1-403): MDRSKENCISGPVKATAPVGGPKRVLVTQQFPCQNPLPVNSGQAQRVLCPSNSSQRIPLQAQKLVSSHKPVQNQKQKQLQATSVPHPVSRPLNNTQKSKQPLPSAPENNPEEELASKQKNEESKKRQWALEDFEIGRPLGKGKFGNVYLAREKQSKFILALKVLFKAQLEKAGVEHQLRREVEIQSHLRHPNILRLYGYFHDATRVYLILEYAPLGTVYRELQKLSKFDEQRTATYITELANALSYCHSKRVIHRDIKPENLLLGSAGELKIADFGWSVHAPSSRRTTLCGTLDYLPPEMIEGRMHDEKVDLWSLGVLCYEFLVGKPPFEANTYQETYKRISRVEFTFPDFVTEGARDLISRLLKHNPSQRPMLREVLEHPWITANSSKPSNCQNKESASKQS
Method: Recombinant human AuroraA (Upstate) was used to evaluate its activity to phosphorylate a substrate peptide (LRRASLG, Promega) was evaluated.
(§3) In a system of the total volume of 50 μL, the reaction of the above-mentioned enzyme (40 ng) was carried out at room temperature for 80 minutes in the presence of 40 mM of MOPS-NaOH (pH 7.5), 20 mM of magnesium chloride, 200 μM of the above peptide, and 1 μM of ATP. After the kinase reaction, the luminescence intensity corresponding to the amount of ATP in the reaction system was measured using a luciferase reagent (Kinase-Glo Luminescent Kinase Assay kit, Promega) with a chemiluminescence measurement apparatus (MicroLumat, Berthold Technologies). The amount of ATP consumed by the phosphorylation reaction was calculated by comparison with the luminescence intensity in the system when the kinase reaction was not carried out.
as §1, §2

Purified bovine PKGα = molecular target: T2, Purified bovine PKGα (Bos taurus, UniProt P00516); assay: PKG kinase assay (Kinase-Glo ATP consumption); conditions: relative ratio to ROCKII (=1.0), based on IC50 values
T2 construct: Purified bovine PKGα (Promega); purchased Promega
T2 sequence (P00516 1-671): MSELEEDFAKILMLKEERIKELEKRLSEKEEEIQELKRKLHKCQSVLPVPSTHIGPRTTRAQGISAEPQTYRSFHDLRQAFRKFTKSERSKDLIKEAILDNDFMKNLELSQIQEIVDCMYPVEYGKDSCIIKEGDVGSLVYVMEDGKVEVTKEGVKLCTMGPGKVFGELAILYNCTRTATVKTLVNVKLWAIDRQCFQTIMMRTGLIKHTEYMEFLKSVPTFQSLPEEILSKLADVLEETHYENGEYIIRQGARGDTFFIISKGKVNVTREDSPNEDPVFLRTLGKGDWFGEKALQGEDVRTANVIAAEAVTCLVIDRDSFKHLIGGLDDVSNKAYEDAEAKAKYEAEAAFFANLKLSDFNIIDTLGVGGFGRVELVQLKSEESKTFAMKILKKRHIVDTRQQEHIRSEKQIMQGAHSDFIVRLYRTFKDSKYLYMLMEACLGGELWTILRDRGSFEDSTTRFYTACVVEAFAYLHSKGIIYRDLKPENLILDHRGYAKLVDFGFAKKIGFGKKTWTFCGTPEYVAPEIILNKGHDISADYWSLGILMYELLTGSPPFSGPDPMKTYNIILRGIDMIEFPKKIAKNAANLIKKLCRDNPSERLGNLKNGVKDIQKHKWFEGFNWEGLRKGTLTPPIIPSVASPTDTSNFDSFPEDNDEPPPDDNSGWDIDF
Method: Purified bovine PKGα (Promega) was used to evaluate its activity to phosphorylate a substrate peptide (RKISASEF, Promega).
as §3, with “(64” for “(40”, “Tris-HCl” for “MOPS-NaOH”, “10 μM of cGMP (Sigma), 100” for “200”
as §1, §2

ROCKII (Rho-kinase) = ROCKII (Rho-kinase) (Homo sapiens, UniProt O75116); assay: Rho-kinase (ROCKII) assay according to Patent Document 1; set-up: key to Realative Inhibitory Activity ROCKII: relative ratio; ROCKII-inhibiting activity defined as 1.0; conditions: ROCKII-inhibiting activity defined as 1.0 (reference)
ROCKII (Rho-kinase), sequence (O75116 whole entry, species assumed): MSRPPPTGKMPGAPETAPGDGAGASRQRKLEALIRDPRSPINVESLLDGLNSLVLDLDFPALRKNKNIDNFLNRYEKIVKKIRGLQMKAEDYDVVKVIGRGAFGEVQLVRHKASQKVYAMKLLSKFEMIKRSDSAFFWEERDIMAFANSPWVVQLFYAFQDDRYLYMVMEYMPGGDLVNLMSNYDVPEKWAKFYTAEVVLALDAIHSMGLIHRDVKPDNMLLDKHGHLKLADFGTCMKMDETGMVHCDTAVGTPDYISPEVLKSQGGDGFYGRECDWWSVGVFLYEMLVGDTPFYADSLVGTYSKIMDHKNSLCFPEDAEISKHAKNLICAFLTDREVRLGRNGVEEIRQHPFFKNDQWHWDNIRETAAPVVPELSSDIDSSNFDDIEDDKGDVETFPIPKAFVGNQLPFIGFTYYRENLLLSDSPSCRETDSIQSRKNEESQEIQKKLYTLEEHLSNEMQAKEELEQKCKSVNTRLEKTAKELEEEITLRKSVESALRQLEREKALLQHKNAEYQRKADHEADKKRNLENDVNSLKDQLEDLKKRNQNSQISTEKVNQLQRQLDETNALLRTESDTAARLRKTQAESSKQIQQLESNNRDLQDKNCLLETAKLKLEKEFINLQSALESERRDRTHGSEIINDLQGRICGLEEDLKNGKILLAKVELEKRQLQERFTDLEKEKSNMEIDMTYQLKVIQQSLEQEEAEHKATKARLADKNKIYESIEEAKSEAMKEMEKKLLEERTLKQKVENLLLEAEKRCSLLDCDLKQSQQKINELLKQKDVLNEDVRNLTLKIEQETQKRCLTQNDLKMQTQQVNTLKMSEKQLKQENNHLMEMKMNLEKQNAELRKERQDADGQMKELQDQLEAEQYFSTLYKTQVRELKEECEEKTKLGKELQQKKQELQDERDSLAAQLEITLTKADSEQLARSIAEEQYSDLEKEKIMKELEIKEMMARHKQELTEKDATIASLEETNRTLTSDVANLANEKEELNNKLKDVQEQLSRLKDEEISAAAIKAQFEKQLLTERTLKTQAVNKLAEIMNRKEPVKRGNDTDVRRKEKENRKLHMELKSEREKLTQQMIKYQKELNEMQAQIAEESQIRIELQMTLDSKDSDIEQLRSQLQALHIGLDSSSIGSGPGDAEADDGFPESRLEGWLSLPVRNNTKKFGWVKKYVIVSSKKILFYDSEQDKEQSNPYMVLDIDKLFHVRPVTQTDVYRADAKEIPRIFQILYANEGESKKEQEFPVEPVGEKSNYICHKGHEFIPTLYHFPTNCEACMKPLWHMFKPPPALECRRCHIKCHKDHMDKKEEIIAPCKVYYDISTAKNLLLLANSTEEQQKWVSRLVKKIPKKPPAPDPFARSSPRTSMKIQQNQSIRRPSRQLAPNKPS
Method: An Rho-kinase assay was carried out according to the method described in Patent Document 1, and the concentration of a compound for inhibiting Rho-kinase activity by 50% (hereinafter referred to as “IC50 value”) was calculated.
as §2

[2] = molecular target: T3, Purified bovine PKA (catalyst subunit) (Bos taurus, UniProt P00517); assay: PKA kinase assay (Kinase-Glo ATP consumption); conditions: relative ratio to ROCKII (=1.0), based on IC50 values
T3 construct: Purified bovine PKA (catalyst subunit, Promega); purchased Promega
Method: Purified bovine PKA (catalyst subunit, Promega) was used to evaluate its activity to phosphorylate a substrate peptide (LRRASLG, Promega).
as §3, with “(43” for “(40”, “20” for “80”, “Tris-HCl” for “MOPS-NaOH”, “1 mg/mL of BSA, 5” for “200”
as §1, §2

Molecule | Realative Inhibitory Activity CaMKII (Purified rat CaMKII) | Realative Inhibitory Activity AuroraA [1] | Realative Inhibitory Activity PKG (Purified bovine PKGα) | Realative Inhibitory Activity ROCKII (ROCKII (Rho-kinase)) | Realative Inhibitory Activity PKA [2]
CC(C)[C@@H](N)C(=O)N1CCCN(S(O)(O)c2cccc3cncc(F)c23)[C@@H](C)C1 [Example 6, 2-(S)-1-(4-fluoroisoquinoline-5-sulfonyl)-2-methyl-4-(D-valyl)homopiperazine dihydrochloride] | >300 | >300 | 30 | 1 | >300
CC[C@H](N)C(=O)N1CCCN(S(O)(O)c2cccc3cncc(F)c23)[C@@H](C)C1 [Example 11, 2-(S)-4-(L-α-aminobutylyl)-1-(4-fluoroisoquinoline-5-sulfonyl)-2-methylhomopiperazine dihydrochloride] | 364 | 210 | 79 | 1 | >300

The remaining lines, values ahead:

Realative Inhibitory Activity CaMKII (Purified rat CaMKII) | Realative Inhibitory Activity AuroraA [1] | Realative Inhibitory Activity PKG (Purified bovine PKGα) | Realative Inhibitory Activity ROCKII (ROCKII (Rho-kinase)) | Realative Inhibitory Activity PKA [2] | Molecule
300 | >300 | 93 | 1 | >300 | 2-(S)-4-(D-alanyl)-1-(4-fluoroisoquinoline-5-sulfonyl)-2-methylhomopiperazine dihydrochloride [Example 4]
135 | 145 | 11 | 1 | >300 | C[C@H](N)C(=O)N1CCCN(S(O)(O)c2cccc3cncc(F)c23)[C@@H](C)C1 [Example 3, 2-(S)-4-(L-alanyl)-1-(4-fluoroisoquinoline-5-sulfonyl)-2-methylhomopiperazine dihydrochloride]
>300 | 244 | 92 | 1 | >300 | CC[C@@H](N)C(=O)N1CCCN(S(O)(O)c2cccc3cncc(F)c23)[C@@H](C)C1 [Example 12, 2-(S)-4-(D-α-aminobutylyl)-1-(4-fluoroisoquinoline-5-sulfonyl)-2-methylhomopiperazine dihydrochloride]
